In ChEMBL document CHEMBL1156829 (Proc Natl Acad Sci U S A, 2008):
pEC50: −log10 of the molar value.

How the values were obtained:
Plasmodium falciparum [1] = assay: NOVARTIS: Inhibition of Plasmodium falciparum 3D7 (drug-susceptible) proliferation in erythrocyte-based infection assay; assay type: functional, organism-based; details: Plasmodium falciparum, 3D7
Plasmodium falciparum [2] = assay: NOVARTIS: Inhibition of Plasmodium falciparum W2 (drug-resistant) proliferation in erythrocyte-based infection assay; assay type: functional, organism-based; details: Plasmodium falciparum, W2; read-out: EC50
[3] = NOVARTIS: Cytotoxicity against human hepatocellular carcinoma cell line (Huh7); assay type: toxicity, cell-based, Huh-7; details: Huh7 cells (hepatocellular carcinoma cell line)

SMILES | pEC50 (Plasmodium falciparum [1]) | pEC50 (Plasmodium falciparum [2]) | CC50 [3]
COc1ccc2cc(CNC3CCN(Cc4ccccc4)CC3)c(=O)[nH]c2c1 | 6.17 | 6.07 | > 65.9 µM
CCCCOc1ccc(-c2nnc(-c3ccc(C)cc3)n2-c2ccccc2)cc1 | < 5.92 | < 6.11 | > 10 µM
O=[N+]([O-])c1ccc(-c2nc3ccccc3n2-c2cc(-c3ccccc3)nn2-c2ccccc2)cc1 | < 5.79 | < 6.21 | > 10 µM
c1ccc(-c2nn(-c3ccccc3)[n+](-c3cccc4ccccc34)n2)cc1 | < 6.38 | 6.88 | > 10 µM
CC1=C(C(=O)Nc2ccc(C)cc2C)C(c2cc(Br)ccc2F)n2ncc(C(=O)Nc3ccc(C)cc3)c2N1 (stereo unspecified) | 5.59 | 6.07 | > 100 µM
COc1cc(Nc2nccn3c(-c4ccsc4)cnc23)cc(OC)c1OC | < 5.90 | 5.78 | > 10 µM
COc1cccc(CNC(=O)C2CNCC2c2ccc(C(F)(F)F)cc2)c1 (stereo unspecified) | 6.40 | 6.96 | > 7.22 µM
CC1CC(=Cc2ccncc2)C(=O)C(=Cc2ccncc2)C1 (stereo unspecified) | 5.79 | 6.13 | 7.77 µM
Cc1cccc(CCNc2cc(C)nc3ncnn23)c1 | 6.08 | 5.97 | > 100 µM
CN1CCN(N/C=C2/C(=O)N(c3nc4ccccc4s3)N=C2c2ccccc2)CC1 | < 6.26 | < 5.76 | > 10 µM
COC(=O)c1ccc(C2C3=C(CC(c4ccc(OC)cc4)CC3=O)Nc3ccccc3N2C(=O)c2ccccc2)cc1 (stereo unspecified) | 6.37 | 6.43 | > 100 µM
COc1ccc(-c2nc(NC(=O)CS(=O)(=O)c3ccc(F)cc3)sc2C)cc1 | 6.67 | 6.25 | 44.1 µM
CCC(c1nc2ccccc2c(=O)n1-c1ccccc1OC)N(CCc1ccccc1)C(=O)Nc1ccccc1OC (stereo unspecified) | 5.99 | 6.44 | > 10 µM
Cc1cc(S(=O)(=O)NC(Cc2ccc([N+](=O)[O-])cc2)C(=O)O)c(Cl)cc1Cl (stereo unspecified) | < 5.90 | 6.41 | > 10 µM
Cc1cc(C(=O)Nc2cnn(Cc3ccc(Cl)cc3Cl)c2)no1 | 6.21 | 6.43 | > 100 µM
O=C(NCCc1ccccc1)c1cnc(NCCCn2ccnc2)nc1Nc1ccccc1 | 6.26 | 6.07 | > 10 µM
c1cncc(-c2nc3cc(-c4ccc5[nH]c(-c6cccnc6)nc5c4)ccc3[nH]2)c1 | 5.85 | 5.89 | > 10 µM
CN(C)c1ccc(/C=C/c2cc(/C=C/c3ccc(N(C)C)cc3)[n+]3ccccc3n2)cc1 | 5.87 | 6.09 | > 10 µM
CC1CC(C)(C)NC(=S)N1CCC(=O)NCCc1ccccc1 (stereo unspecified) | 6.00 | < 5.90 | > 10 µM
O=C(NC(c1ccccc1)c1ccc2cccnc2c1O)c1ccccc1 (stereo unspecified) | 6.27 | 6.42 | > 100 µM
CC(C)NCC(O)c1ccc2ccccc2c1 (stereo unspecified) [PRONETALOL] | 6.34 | 6.44 | 13.1 µM
CCOC(=O)N1CCN(C(=O)CCCCn2c(=S)[nH]c3ccsc3c2=O)CC1 | < 5.95 | < 5.90 | > 10 µM
CC(C)CN1C(=O)c2ccccc2C(C(=O)Nc2ccc(CN3CCC(C)CC3)cc2)C1c1cccs1 (stereo unspecified) | 5.69 | 5.95 | > 100 µM
CCOC(=O)C1=C(C)NC2=C(C(=O)CC(c3ccc(OC)c(OC)c3)C2)C1c1cccc(Cl)c1Cl (stereo unspecified) | 7.48 | 7.52 | > 100 µM
CCOC(=O)CCCCC(=O)c1[nH]c(=O)[nH]c1Cn1ccnc1 | 6.82 | 6.78 | > 100 µM
COc1cccc(-c2nc(CS(=O)(=O)CC(=O)N3CC(C)CC(C)C3)c(C)o2)c1 (stereo unspecified) | 6.87 | < 5.90 | > 10 µM
COc1cccc(CN2CCC(O)(c3ccc4oc(C(=O)Nc5ccc(Cl)cc5)cc4c3)CC2)c1 | 5.67 | 5.39 | 24.7 µM
